Data on 19 compounds can be found in patent publication US8563000B2, “Melanocortin receptor ligands modified with hydantoin” (Ipsen Pharma S.A.S., priority 2007, dated 2013).

For assay [1], the target named is T1, hMC4 (Homo sapiens, UniProt P32245).
T1 construct: expressed in transfected cells; host or cells: CHO-K1
Kind of assay: Cyclic AMP bioassay (ECL), CHO-K1 cells expressing hMC4. It is filed as cell-based. The conditions noted are these: intracellular cAMP.
Description: (§3) Intracellular cyclic AMP (cAMP) levels were determined by an electrochemiluminescence (ECL) assay (Meso Scale Discovery®, Gaithersburg, Md.; referred to hereinafter as “MSD”). […] Transgenic CHO-K1 cells stably expressing hMC receptor subtypes 1, 3, 4 or 5 were dispensed at a density of approximately 7,000 cells/well in 384-well Multi-Array® plates (MSD) containing integrated carbon electrodes and coated with anti-cAMP antibody. Increasing concentrations of the test compounds were added and the cells were incubated for approximately 40 minutes at approximately 37° C. […] At the end of the second incubation period read buffer (Tris-buffered solution containing an ECL co-reactant and Triton X-100 at ph 7.8) was added and the cAMP levels in the cell lysates were immediately determined by ECL detection with a Sector Imager 6000 Reader® (MSD). Data was analyzed using a computer-assisted non-linear regression analysis (XL fit; IDBS) and reported as either an EC50 value or a Kb value.

Assay [2] deals with T2, hMC5 (Homo sapiens, UniProt P33032).
T2 construct: expressed in transfected cells; host or cells: CHO-K1
Kind of assay: Cyclic AMP bioassay (ECL), CHO-K1 cells expressing hMC5. Type of assay: cell-based. The conditions noted are these: intracellular cAMP.
Description: as §3

The target in assay [3] is T3, hMC3 (Homo sapiens, UniProt P41968).
T3 construct: expressed in transfected cells; host or cells: CHO-K1
Kind of assay: Cyclic AMP bioassay (ECL), CHO-K1 cells expressing hMC3. Type of assay: cell-based. The conditions noted are these: intracellular cAMP.
Description: as §3

The target of assay [4] is T4, hMC1 (Homo sapiens, UniProt Q01726).
T4 construct: expressed in transfected cells; host or cells: CHO-K1
Nature of the assay: Cyclic AMP bioassay (ECL), CHO-K1 cells expressing hMC1. Type of assay: cell-based. The conditions noted are these: intracellular cAMP.
Description: as §3

Assay [5] deals with T3, hMC3. Nature of the assay: Radioligand binding assay, [125I]-NDP-α-MSH, CHO-K1 membranes. On the procedure: (§1) Cellular membranes used for the in vitro receptor binding assays were obtained from transgenic CHO-K1 cells stably expressing hMC-R receptor subtypes 1, 3, 4 or 5. […] The pellets were re-suspended in the same buffer and centrifuged at 50,000 g for 10 minutes at approximately 4° C. The washed pellets containing the cellular membranes were stored at approximately −80° C.
(§2) Filters were washed three times with 50 mM Tris-HCl at pH 7.4 at a temperature of approximately 0-4° C. and then assayed for radioactivity using a Packard Topcount® scintillation counter. Binding data were analyzed by computer-assisted non-linear regression analysis (XL fit; IDBS).

Assay [6] deals with T1, hMC4. The description is as above. On the procedure: as §1, §2
Assay [7] has as its target T4, hMC1. Described as above. The protocol:
as §1, §2

Assay [8] deals with T2, hMC5. The description is as above. The protocol: as §1, §2

The term EC50 denotes the concentration that produces a half-maximal response. The low end stands for a more potent agent, the high end for a less potent agent. The Ki is the dissociation constant of the complex between target and ligand, obtained from inhibition or displacement.

T1 sequence (P32245 whole entry): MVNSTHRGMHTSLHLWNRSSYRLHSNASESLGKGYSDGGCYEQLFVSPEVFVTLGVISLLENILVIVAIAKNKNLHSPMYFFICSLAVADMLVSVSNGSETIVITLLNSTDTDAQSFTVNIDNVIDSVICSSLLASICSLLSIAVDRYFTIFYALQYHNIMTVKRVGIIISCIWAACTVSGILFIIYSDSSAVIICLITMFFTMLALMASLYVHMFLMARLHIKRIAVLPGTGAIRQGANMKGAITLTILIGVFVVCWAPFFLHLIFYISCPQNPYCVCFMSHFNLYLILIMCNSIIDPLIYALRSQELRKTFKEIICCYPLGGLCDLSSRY
T4 sequence (Q01726 whole entry): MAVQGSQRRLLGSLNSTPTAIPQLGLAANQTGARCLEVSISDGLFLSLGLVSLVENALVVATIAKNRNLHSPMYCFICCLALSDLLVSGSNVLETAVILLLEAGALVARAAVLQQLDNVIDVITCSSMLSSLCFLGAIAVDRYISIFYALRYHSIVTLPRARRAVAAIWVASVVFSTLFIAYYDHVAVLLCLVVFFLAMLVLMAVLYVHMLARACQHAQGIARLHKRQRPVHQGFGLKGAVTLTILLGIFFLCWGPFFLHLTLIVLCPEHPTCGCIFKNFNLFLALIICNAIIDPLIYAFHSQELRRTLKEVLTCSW
T2 sequence (P33032 whole entry): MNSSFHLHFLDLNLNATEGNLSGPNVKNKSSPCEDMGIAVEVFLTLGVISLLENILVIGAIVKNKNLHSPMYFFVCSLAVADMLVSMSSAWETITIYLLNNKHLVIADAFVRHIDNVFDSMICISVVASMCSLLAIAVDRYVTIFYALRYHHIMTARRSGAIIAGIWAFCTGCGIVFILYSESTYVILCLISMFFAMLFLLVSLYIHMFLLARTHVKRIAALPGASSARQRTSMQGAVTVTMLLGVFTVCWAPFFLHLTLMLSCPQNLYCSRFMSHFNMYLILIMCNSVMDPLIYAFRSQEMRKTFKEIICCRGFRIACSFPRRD
T3 sequence (P41968 whole entry): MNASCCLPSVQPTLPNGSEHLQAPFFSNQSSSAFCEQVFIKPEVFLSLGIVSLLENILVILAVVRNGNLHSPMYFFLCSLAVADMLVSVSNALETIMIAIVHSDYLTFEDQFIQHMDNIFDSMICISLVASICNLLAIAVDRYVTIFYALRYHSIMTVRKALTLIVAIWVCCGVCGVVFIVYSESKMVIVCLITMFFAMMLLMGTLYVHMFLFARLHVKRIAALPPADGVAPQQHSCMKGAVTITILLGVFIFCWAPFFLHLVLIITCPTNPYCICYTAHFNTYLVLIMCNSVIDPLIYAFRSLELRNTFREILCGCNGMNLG

For the compound `C[C@H]1NC(=O)[C@@H](NC(=O)CN2C(=O)N[C@H](C)C2=O)CSSC[C@@H](C(N)=O)NC(=O)[C@H](Cc2c[nH]c3ccccc23)NC(=O)[C@H](CCCNC(=N)N)NC(=O)[C@@H](Cc2ccccc2)NC(=O)[C@H](Cc2cnc[nH]2)NC1=O` [Hydantoin(C(O)-(D-Ala-Gly))-cyclo(Cys-D-Ala-His-D-Phe-Arg-Trp-Cys)-NH2], the EC50 is 0.000309 µM on hMC4 [1], 0.355 µM on hMC5 [2], 0.00222 µM at hMC3 [3] and 0.0047 µM at hMC1 [4].
Take `CCCC[C@@H](C(=O)N[C@H]1CSSC[C@@H](C(N)=O)NC(=O)[C@H](Cc2c[nH]c3ccccc23)NC(=O)[C@H](CCCNC(=N)N)NC(=O)[C@@H](Cc2ccccc2)NC(=O)[C@H](Cc2cnc[nH]2)NC(=O)[C@@H](C)NC1=O)N1C(=O)N[C@H](C)C1=O` [Hydantoin(C(O)-(D-Ala-Nle))-cyclo(Cys-D-Ala-His-D-Phe-Arg-Trp-Cys)-NH2]: the figures for the EC50 at hMC4 [1] and at hMC3 [3] were 0.00147 µM and 0.00256 µM, respectively.
As to `C[C@H]1NC(=O)[C@@H](NC(=O)CN2C(=O)N[C@H](CCCNC(=N)N)C2=O)CSSC[C@@H](C(N)=O)NC(=O)[C@H](Cc2c[nH]c3ccccc23)NC(=O)[C@H](CCCNC(=N)N)NC(=O)[C@@H](Cc2ccccc2)NC(=O)[C@H](Cc2cnc[nH]2)NC1=O` [Hydantoin(C(O)-(D-Arg-Gly))-cyclo(Cys-D-Ala-His-D-Phe-Arg-Trp-Cys)-NH2], the EC50 at hMC4 [1] was 0.000513 µM; at hMC5 [2], 3.95 µM; at hMC3 [3], 0.0232 µM; at hMC1 [4] it was 0.0115 µM.
With `N=C(N)NCCC[C@@H]1NC(=O)[C@@H](Cc2ccccc2)NC(=O)[C@H](Cc2cnc[nH]2)NC(=O)[C@H](CCC(=O)O)NC(=O)[C@@H](NC(=O)CN2C(=O)N[C@H](CCCNC(=N)N)C2=O)CSSC[C@@H](C(N)=O)NC(=O)[C@H](Cc2c[nH]c3ccccc23)NC1=O` [Hydantoin(C(O)-(D-Arg-Gly))-cyclo(Cys-Glu-His-D-Phe-Arg-Trp-Cys)-NH2], the EC50 at hMC4 [1] was 0.00016 µM; at hMC5 [2], 2.71 µM; at hMC3 [3] it was 0.0171 µM; on hMC1 [4] it was 0.018 µM. Besides, the Ki on hMC3 [5] was determined as 0.124 µM; on hMC4 [6], 0.00295 µM; on hMC1 [7] it was 0.00949 µM; on hMC5 [8], 2.26 µM.
For `C[C@H]1NC(=O)[C@@H](NC(=O)[C@@H](CCCNC(=N)N)N2C(=O)CNC2=O)CSSC[C@@H](C(N)=O)NC(=O)[C@H](Cc2c[nH]c3ccccc23)NC(=O)[C@H](CCCNC(=N)N)NC(=O)[C@@H](Cc2ccccc2)NC(=O)[C@H](Cc2cnc[nH]2)NC1=O` [Hydantoin(C(O)-(Gly-D-Arg))-cyclo(Cys-D-Ala-His-D-Phe-Arg-Trp-Cys)-NH2], the EC50 was determined as 0.000435 µM at hMC4 [1], 9.84 µM at hMC5 [2], 0.0116 µM on hMC3 [3] and 0.00753 µM at hMC1 [4].
For `N=C(N)NCCC[C@@H]1NC(=O)[C@@H](Cc2ccccc2)NC(=O)[C@H](Cc2cnc[nH]2)NC(=O)[C@H](CCC(=O)O)NC(=O)[C@@H](NC(=O)CN2C(=O)CNC2=O)CSSC[C@@H](C(N)=O)NC(=O)[C@H](Cc2c[nH]c3ccccc23)NC1=O` [Hydantoin(C(O)-(Gly-Gly))-cyclo(Cys-Glu-His-D-Phe-Arg-Trp-Cys)-NH2], at hMC5 [2], the EC50 is more than 10 µM.
Turning to `CCCC[C@@H]1NC(=O)N(CC(=O)N[C@H]2CSSC[C@@H](C(N)=O)NC(=O)[C@H](Cc3c[nH]c4ccccc34)NC(=O)[C@H](CCCNC(=N)N)NC(=O)[C@@H](Cc3ccccc3)NC(=O)[C@H](Cc3cnc[nH]3)NC(=O)[C@H](CCC(=O)O)NC2=O)C1=O` [Hydantoin(C(O)-(Nle-Gly))-cyclo(Cys-Glu-His-D-Phe-Arg-Trp-Cys)-NH2], the EC50 at hMC5 [2] was more than 10 µM.
For the compound `N=C(N)NCCC[C@@H]1NC(=O)[C@@H](Cc2ccc3ccccc3c2)NC(=O)C2(CC2)N2C(=O)N[C@@H](CC(=O)NCCCC[C@@H](C(N)=O)NC(=O)[C@H](Cc3c[nH]c4ccccc34)NC1=O)C2=O` [cyclo[Hydantoin(C(O)-(Asp-A3c))-D-2-Nal-Arg-Trp-Lys]-NH2], the Ki came out at 1.92 µM at hMC3 [5], 0.42 µM on hMC4 [6], 7.57 µM on hMC1 [7] and 2.88 µM on hMC5 [8].
As for `N=C(N)NCCC[C@@H]1NC(=O)[C@@H](Cc2ccc3ccccc3c2)NC(=O)C2(CCCC2)N2C(=O)N[C@@H](CC(=O)NCCCC[C@@H](C(N)=O)NC(=O)[C@H](Cc3c[nH]c4ccccc34)NC1=O)C2=O` [cyclo[Hydantoin(C(O)-(Asp-A5c))-D-2-Nal-Arg-Trp-Lys]-NH2], the values for the Ki at hMC3 [5] and at hMC1 [7] were 2.39 µM and 9.94 µM, respectively.
With `N=C(N)NCCC[C@@H]1NC(=O)[C@@H](Cc2ccc3ccccc3c2)NC(=O)C2(CCCCC2)N2C(=O)N[C@@H](CC(=O)NCCCC[C@@H](C(N)=O)NC(=O)[C@H](Cc3c[nH]c4ccccc34)NC1=O)C2=O` [cyclo[Hydantoin(C(O)-(Asp-A6c))-D-2-Nal-Arg-Trp-Lys]-NH2], the Ki at hMC3 [5] worked out at 1.48 µM; at hMC4 [6], 0.0165 µM; on hMC1 [7], 2.17 µM; on hMC5 [8], 0.451 µM.
The matching figures for `N=C(N)NCCC[C@@H]1NC(=O)[C@@H](Cc2ccc3ccccc3c2)NC(=O)C2(Cc3ccccc3C2)N2C(=O)N[C@@H](CC(=O)NCCCC[C@@H](C(N)=O)NC(=O)[C@H](Cc3c[nH]c4ccccc34)NC1=O)C2=O` [cyclo[Hydantoin(C(O)-(Asp-Aic))-D-2-Nal-Arg-Trp-Lys]-NH2]: 2.63 µM, 0.0358 µM, 9.03 µM and 1.16 µM.
As to `N=C(N)NCCC[C@@H]1NC(=O)[C@@H](Cc2ccc3ccccc3c2)NC(=O)C2(CCNCC2)N2C(=O)N[C@@H](CC(=O)NCCCC[C@@H](C(N)=O)NC(=O)[C@H](Cc3c[nH]c4ccccc34)NC1=O)C2=O` [cyclo[Hydantoin(C(O)-(Asp-Apc))-D-2-Nal-Arg-Trp-Lys]-NH2], the Ki on hMC3 [5] came to 2.76 µM; on hMC4 [6] it was 0.266 µM; at hMC1 [7], 1.28 µM.
At hMC5 [8], `C[C@@H]1C(=O)N[C@@H](Cc2cnc[nH]2)C(=O)N[C@H](Cc2ccccc2)C(=O)N[C@@H](CCCNC(=N)N)C(=O)N[C@@H](Cc2c[nH]c3ccccc23)C(=O)N[C@H](C(N)=O)CNC(=O)C[C@@H]2NC(=O)N1C2=O` [cyclo[Hydantoin(C(O)-(Asp-D-Ala))-His-D-Phe-Arg-Trp-Dap]-NH2] showed a Ki of more than 10 µM.
At hMC1 [7], `N=C(N)NCCC[C@@H]1NC(=O)[C@@H](Cc2ccc3ccccc3c2)NC(=O)[C@H](Cc2cnc[nH]2)N2C(=O)N[C@@H](CC(=O)NCCCC[C@@H](C(N)=O)NC(=O)[C@H](Cc3c[nH]c4ccccc34)NC1=O)C2=O` [cyclo[Hydantoin(C(O)-(Asp-His))-D-2-Nal-Arg-Trp-Lys]-NH2] registered a Ki of 0.2 µM.
As for `C[C@@H]1C(=O)N[C@@H](Cc2cnc[nH]2)C(=O)N[C@H](Cc2ccccc2)C(=O)N[C@@H](CCCNC(=N)N)C(=O)N[C@@H](Cc2c[nH]c3ccccc23)C(=O)N[C@H](C(N)=O)CNC(=O)CC[C@@H]2NC(=O)N1C2=O` [cyclo[Hydantoin(C(O)-(Glu-D-Ala))-His-D-Phe-Arg-Trp-Dap]-NH2], the concentration for a half-maximal effect (EC50) is 0.000182 µM at hMC4 [1], 0.0182 µM on hMC3 [3] and 0.0567 µM on hMC1 [4]. Besides, the Ki at hMC3 [5] came out at 0.863 µM; on hMC4 [6], 0.00497 µM; on hMC1 [7], 0.0164 µM.
On to `C[C@@H]1C(=O)N[C@@H](Cc2cnc[nH]2)C(=O)N[C@H](Cc2ccccc2)C(=O)N[C@@H](CCCNC(=N)N)C(=O)N[C@@H](Cc2c[nH]c3ccccc23)C(=O)N[C@H](C(N)=O)CCCCNC(=O)CC[C@@H]2NC(=O)N1C2=O` [cyclo[Hydantoin(C(O)-(Glu-D-Ala))-His-D-Phe-Arg-Trp-Lys]-NH2], for which the EC50 at hMC4 [1] was determined as 0.00362 µM; on hMC3 [3], 0.0223 µM. Besides, the Ki stood at 1.92 µM on hMC3 [5], 0.0452 µM on hMC4 [6] and 0.0726 µM on hMC1 [7].
On to `C[C@@H]1C(=O)N[C@@H](Cc2cnc[nH]2)C(=O)N[C@H](Cc2ccccc2)C(=O)N[C@@H](CCCNC(=N)N)C(=O)N[C@@H](Cc2c[nH]c3ccccc23)C(=O)N[C@H](C(N)=O)CCCNC(=O)CC[C@@H]2NC(=O)N1C2=O` [cyclo[Hydantoin(C(O)-(Glu-D-Ala))-His-D-Phe-Arg-Trp-Orn]-NH2], for which the values for the EC50 at hMC4 [1] and on hMC3 [3] were 0.00494 µM and 0.0392 µM, respectively. In addition, the Ki worked out at 2.84 µM on hMC3 [5], 0.0524 µM at hMC4 [6] and 0.0604 µM on hMC1 [7].
On to `N=C(N)NCCC[C@@H]1NC(=O)[C@@H](Cc2ccccc2)NC(=O)[C@H](Cc2cnc[nH]2)NC(=O)[C@H](CCC(=O)O)NC(=O)[C@@H](N2C(=O)CNC2=O)CSSC[C@@H](C(N)=O)NC(=O)[C@H](Cc2c[nH]c3ccccc23)NC1=O` [cyclo[Hydantoin(C(O)-(Gly-Cys))-Glu-His-D-Phe-Arg-Trp-Cys]-NH2], for which the EC50 on hMC4 [1] amounted to 0.000576 µM; on hMC5 [2], 1.78 µM; at hMC3 [3] it was 0.0218 µM; at hMC1 [4] it was 0.0145 µM.
As for `CC[C@H](C)[C@@H]1NC(=O)N([C@H]2CSSC[C@@H](C(N)=O)NC(=O)[C@H](Cc3c[nH]c4ccccc34)NC(=O)[C@H](CCCNC(=N)N)NC(=O)[C@@H](Cc3ccccc3)NC(=O)[C@H](Cc3cnc[nH]3)NC(=O)[C@@H](C)NC2=O)C1=O` [cyclo[Hydantoin(C(O)-(Ile-Cys))-D-Ala-His-D-Phe-Arg-Trp-Cys]-NH2], the Ki on hMC5 [8] is more than 10 µM.
